Results reported in publication PMC11024869, “The activity of antimicrobial peptoids against multidrug-resistant ocular pathogens” (Contact lens & anterior eye : the journal of the British …, 2024).
“And” between values parts separate entries of the source, which are not always exact repeats. Equal values may be shown once. Read-outs that look alike come from different tables or passages of the source. Non-standard residues stand in square brackets, D forms with d. Residues, ends and D or L forms follow the SMILES beside them. Nspe(4-Br) = C[C@H](NCC(=O)O)c1ccc(Br)cc1; Nspe = C[C@H](NCC(=O)O)c1ccccc1; NDecylGly = CCCCCCCCCCNCC(=O)O; Nlys = NCCCCNCC(=O)O

Columns and labels:
[1] = tested on: human corneal epithelial cells; assay: Cytotoxicity (MTT) to corneal epithelial cells; assay type: cell-based
Method: Cytotoxicity to corneal epithelial cells was assessed for peptoids TM1, TM5 and TM9 using previously published methods and FDA guidelines. These peptides represent structurally diverse types (Table 2) and had different abilities to cause hemolysis of red blood cells (Fig. 1 and Table 3). Corneal cells were seeded on 96 well plate (GreinerBio One, Frickenhauser, Germany) incubated in 5 % CO2 at 37°C and grown to 80 % confluence in Dulbecco’s modified Eagle’s medium (DMEM) (Sigma-Aldrich, Irvine, UK). They were then exposed to twofold dilutions of each peptoid at concentrations ranging from 500 to 1.95 μg mL^−1 for 24 h at 37°C. An MTT (3-(4,5-dimethylthiazol-2yl)-2,5-diphenyltetrazolium bromide; Sigma-Aldrich) working solution of 0.5 mg mL^−1 was dissolved in DMEM, 100–200 μL was dispensed into each well and incubated for 4 h at 37°C. Following incubation, MTT was replaced by dimethyl sulfoxide (DMSO, Sigma Aldrich) to dissolve the formazan crystals formed by viable cells. Absorbance of this solution was measured at OD570nm. The absorbance is directly proportional to the number of viable cells. The normalized absorbance was calculated to determine number of viable cells using the following formula: %Cytotoxicity=(Absorbance of experiment well)−mean(absorbance of control well)/mean(Absorbance of positive control well)⋆100
Data are also presented as the concentration of peptoids that caused 10 % or 50 % cytotoxicity to human corneal epithelial cells.
(§1) The geometric mean is the nth root of the multiplied numbers, where n is the total number of data values. A similar formula was used to calculate the selectivity ratio, but by using the concentration of peptoid that caused 10 % hemolysis.

S. aureus strains = assay type: cell-based, Staphylococcus aureus; details: summary over five S. aureus strains in text
Source text: (§3) The S. pneumoniae strains used were SP04, SP06 and SP07 [46] and Streptococcus gallolyticus SV06 (all isolated from eyes of contact lens wearers during adverse events); P. aeruginosa PAO1 (which was originally isolated from a wound, and is an invasive strain containing the gene exoS) as well as isolates from microbial keratitis, PA 235 (invasive strain containing exoS), PA216 (a cytotoxic strain containing exoU), PA219 (cytotoxic strain containing exoU), PA 233 (cytotoxic strain containing exoU), with various susceptibilities to antibiotics were also used [14]. C. albicans ATCC 10231, a yeast, isolated from case of a human bronchomycosis, was also evaluated.
(§4) The peptoids’ minimum inhibitory and bactericidal concentrations (MIC and MBC) were determined using micro broth dilution methods as previously described with slight modifications, [26, 39, 49, 50], and without using acetic acid and bovine serum albumin [39]. Briefly, bacteria or yeast were suspended in Muller Hinton broth (MHB, Oxoid, Thermo Fisher Scientific, Thebarton, SA, Australia) at 0.1 OD660nm, which was equivalent to 1x10^8 colony forming units (CFU) mL^−1. This suspension was further diluted to achieve 5x10^6 CFU mL^−1. […] Post incubation, the number of CFUs on the agar plates was counted.

streptococci = assay: MIC micro broth dilution, summary over streptococci; assay type: cell-based
Source text: as §3, §4

tested bacteria = assay: Geometric mean of MIC of the tested bacteria; assay type: cell-based; details: nth root of the multiplied MICs of the tested bacteria
Source text: as §1

P aeruginosa 216 = tested on: P aeruginosa 216
Method: (§2) Melimine was used as positive control as it is a cationic antimicrobial peptide that can be hydrolysed by proteases. The Expasy peptide cutter module (https://web.expasy.org/peptide_cutter/) was accessed to predict which proteases might digest melimine. The susceptibility of the antimicrobial compounds to digestion by two proteases expected to digest melimine, Proteinase K (120 unit mL^−1 in 20 mM Tris HCl, pH 7.4; New England Bio Labs, Australia) and Trypsin (10,350 BAFE units/mg in 50 mM borate buffer, pH 8.5; Thermo Scientific products, Australia), was tested. The peptoids and melimine were incubated with each protease at the ratio (w/w) of 1:100 in PBS (pH 7.4) for 24 h at 37 °C. After incubation, the peptoid/melimine + protease solutions were tested for their activity against P. aeruginosa 216 which was grown overnight in TSB at 37 °C. Bacterial cells were washed three times in PBS and then resuspended in MHB OD660nm of 0.1 (equal to 1x10^8 CFU mL^−1. The bacterial suspension was then diluted in MHB to a final working concentration of 5x10^6 cells mL^−1. The diluted bacterial suspension was subsequently added to the wells containing the peptoids/melimine + protease solution and incubated for 24 h at 37 °C. Peptoids/melimine solutions alone (no proteases) were used as a positive control, while protease solutions without the peptoids/melimine were used as a negative control. Post incubation, to inhibit the activity of the proteases, the bacterial suspensions were heated at 55 °C for 10 min in a water bath. After the heating step, the absorbance of the suspensions was measured at OD660nm.

Proteinase K = Proteinase K (Parengyodontium album, UniProt P06873)
Proteinase K, sequence (P06873 106-384): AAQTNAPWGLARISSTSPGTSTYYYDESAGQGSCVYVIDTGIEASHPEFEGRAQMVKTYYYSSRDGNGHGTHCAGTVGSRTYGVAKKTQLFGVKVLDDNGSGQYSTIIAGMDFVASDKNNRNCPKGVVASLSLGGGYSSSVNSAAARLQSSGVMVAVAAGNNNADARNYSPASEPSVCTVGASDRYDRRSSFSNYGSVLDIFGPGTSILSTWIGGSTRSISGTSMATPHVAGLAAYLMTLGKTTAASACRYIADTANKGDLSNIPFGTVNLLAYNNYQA
Method: as §2

Trypsin = biological target: T1, Trypsin (Bos taurus, UniProt P00760)
T1 sequence (P00760 24-246): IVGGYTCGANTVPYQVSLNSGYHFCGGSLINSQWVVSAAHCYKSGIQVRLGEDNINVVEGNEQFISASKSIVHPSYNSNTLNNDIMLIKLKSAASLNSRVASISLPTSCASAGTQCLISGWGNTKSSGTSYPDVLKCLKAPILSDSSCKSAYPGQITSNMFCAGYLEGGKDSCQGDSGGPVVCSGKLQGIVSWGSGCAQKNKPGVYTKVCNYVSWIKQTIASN
Method: as §2

[2] = incubated with protease at ratio (w/w) 1:100 in PBS pH 7.4, 24 h 37 °C, then P aeruginosa 216 in MHB 24 h 37 °C, OD660nm

Source text for all strains: as §3, §4

Compound | HCE CC10 ([1]; concentration causing 10 % cytotoxicity to human corneal epithelial cells, MTT, 24 h 37°C) | HCE CC50 ([1]; concentration causing 50 % cytotoxicity to human corneal epithelial cells, MTT, 24 h 37°C) | cytotoxicity to human corneal epithelial cells relative to MIC ([1]; result in words) | SR HCE (ratio CC10 to geometric mean MIC) ([1]; selectivity ratio) | TI HCE (ratio CC50 to geometric mean MIC) ([1]; therapeutic index) | MIC among S. aureus (S. aureus strains) | MIC against other streptococci (streptococci) | Geometric mean of MIC (tested bacteria) | MIC, No protease (P aeruginosa 216; 216, 24 h) | MIC after Proteinase K (Proteinase K; pH 7.4) | MIC after Trypsin (Trypsin; pH 7.4) | MICs against all strains (all strains) | MIC, No protease (P aeruginosa 216; P aeruginosa 216 in MHB, 24 h 37 °C, OD660nm, compound alone) | MIC after Proteinase K (Proteinase K; [2]) | MIC after Trypsin (Trypsin; [2])
C[C@@H](c1ccccc1)N(CC(N)=O)C(=O)CN(C(=O)CN(CCCCN)C(=O)CN(C(=O)CN(C(=O)CN(CCCCN)C(=O)CN(C(=O)CN(C(=O)CN(CCCCN)C(=O)CN(C(=O)CN(C(=O)CNCCCCN)[C@@H](C)c1ccccc1)[C@@H](C)c1ccccc1)[C@@H](C)c1ccccc1)[C@@H](C)c1ccccc1)[C@@H](C)c1ccccc1)[C@@H](C)c1ccccc1)[C@@H](C)c1ccccc1 [TM1] (H-[Nlys][Nspe][Nspe][Nlys][Nspe][Nspe][Nlys][Nspe][Nspe][Nlys][Nspe][Nspe]-NH2) | 1 µM | 10 µM | cytotoxic to human corneal epithelial cells at or below their MICs | 0.3 | 3 | ≤ 9.4 µM | ≤ 8.6 µM | – | – | – | – | – | – | – | –
C[C@@H](c1ccc(Br)cc1)N(CC(=O)N(CCCCN)CC(=O)N(CC(=O)N(CC(=O)N(CCCCN)CC(N)=O)[C@@H](C)c1ccc(Br)cc1)[C@@H](C)c1ccc(Br)cc1)C(=O)CN(C(=O)CNCCCCN)[C@@H](C)c1ccc(Br)cc1 [TM14] (H-[Nlys][Nspe(4-Br)][Nspe(4-Br)][Nlys][Nspe(4-Br)][Nspe(4-Br)][Nlys]-NH2) | – | – | – | – | – | – | – | 4.0 µM and 4 µM | 7.8 (5.8) μg mL^−1 | 7.8 (5.8) μg mL^−1 | 7.8 (5.8) μg mL^−1 | ≤ 12.7 µM | – | – | –
CCCCCCCCCCNCC(=O)N(CCCCN)CC(=O)N(CC(=O)N(CC(=O)N(CCCCN)CC(=O)N(CC(=O)N(CC(=O)N(CCCCN)CC(N)=O)[C@@H](C)c1ccccc1)[C@@H](C)c1ccccc1)[C@@H](C)c1ccccc1)[C@@H](C)c1ccccc1 [TM18] (H-[NDecylGly][Nlys][Nspe][Nspe][Nlys][Nspe][Nspe][Nlys]-NH2) | – | – | – | – | – | – | – | 5 µM | – | – | – | – | 15 (12) μg mL^−1 | 15 (12) μg mL^−1 | 15 (12) μg mL^−1
